Laboratory results as given in PubChem BioAssay AID179 (DTP/NCI, 2004).
Calls of active or inactive are those of the source.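 The calls were made as follows: active = compounds giving half or more protection of infected cells from virus-caused growth loss, again on retest; inactive = the rest.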 Where a SMILES comes first, the peptide text is derived from it. The star is where a group is joined. Boc = CC(C)(C)OC(=O)*; OBn = c1ccc(CO*)cc1

Tested on: CEM cells HIV-1 protection, formazan growth assay
Assay: NCI AIDS Antiviral Assay
Details: for IC50: measured here: growth of uninfected CEM cells
Procedure, shortened: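 Steps: treat uninfected and HIV-1-infected human CEM cells at five drug levels; quantify growth by soluble formazan; retest any compound reaching 50% protection; classify actives from the retest.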

| Compound | EC50 | IC50 | outcome |
| --- | --- | --- | --- |
| CCC(C)C1(C2CCCC2)NC(=O)NC1=O (stereo unspecified) | > 200 µM | > 200 µM |  |
| COc1ccccc1NC(=S)N/N=C/c1cccc(C)n1 | > 200 µM | 2.75 µM |  |
| CN(C)CCN1C(=O)CN=C(c2ccccc2Cl)c2cc(Cl)ccc21 | > 200 µM | 117 µM |  |
| CC(=O)Nc1ccc(/C=C2\N=C(c3ccccc3)OC2=O)cc1 | > 12.3 µM | > 12.3 µM |  |
| CCOC(=O)c1ccc(CS(=O)c2ccccc2)c([N+](=O)[O-])c1 (stereo unspecified) | > 204 µM | 3.47 µM |  |
| CC(C)(O)[C@@H]1CC[C@](C)(C2[C@@H](O)C[C@@]3(C)C4C[C@H](OC5OCC(O)C(O)C5O)[C@H]5C(C)(C)[C@@H](OC6OCC(O)C(O)C6OC6OCC(O)C(O)C6O)CC[C@@]56C[C@@]46CC[C@]23C)O1 (stereo partly specified) | > 200 µM | > 200 µM |  |
| CCOC(=O)c1ccc(NC(=O)O/N=C(/Cl)CCl)cc1 | > 200 µM | 18.6 µM |  |
| NS(=O)(=O)c1ccc(N=NC2Sc3nc4ccccc4n3C2=O)cc1 (stereo unspecified) |  |  | inactive |
| CCCC#CCC(CC#CCCC)(C(=O)O)C(=O)O | > 490 µM | > 490 µM |  |
| CC(=O)C(CCC#N)(CCC#N)CCC#N | > 200 µM | > 200 µM |  |
| Cn1c(=O)c2nsnc2n(C)c1=O | > 661 µM | > 661 µM |  |
| CN1CCN(C)C12C=CC=CC21CC1 |  |  | inactive |
| CC(C)[Si]1(C(C)C)OCC2OC(N3C(=O)NC(=O)C[C@@H]3C(O)c3ccccc3)CC2O[Si](C(C)C)(C(C)C)O1 (stereo partly specified) | > 200 µM | 10.5 µM |  |
| O=C(O)C1CC2C3C=CC(C3)C2C1 (stereo unspecified) (tested in a mixture with another compound) | > 64.6 µM | 45.7 µM |  |
| CC(=O)OCC1OC(Sc2nc(-c3ccccc3)c(C#N)c(=O)n2C2OC(COC(C)=O)C(OC(C)=O)C(OC(C)=O)C2OC(C)=O)C(OC(C)=O)C(OC(C)=O)C1OC(C)=O (stereo unspecified) | > 151 µM | 19.5 µM |  |
| CC(C)CCCC(C)[C@H]1CCC2C3C[C@@H](CCC=C(c4cc(Cl)c(O)c(C(=O)O)c4)c4cc(Cl)c(O)c(C(=O)O)c4)[C@H]4CCCC[C@]4(C)C3CC[C@@]21C (stereo partly specified) | 20 µM | > 100 µM |  |
| O=C(Nc1ccc(C2=NCCCN2)cc1)c1ccc(NC(=O)c2ccc(C3=NCCCN3)cc2)cc1 | > 200 µM | 67.6 µM |  |
| CC(C)(C)COC(=O)NC1CCC2CCCCC2C1 (stereo unspecified) | > 200 µM | > 200 µM |  |
| CC1(C)CC(=O)C(CC2C(=O)c3ccccc3C2=O)C(=O)C1 | > 120 µM | > 120 µM |  |
| C=CCN(c1cc(OC)c(NC(C)=O)cc1[N+](=O)[O-])S(C)(=O)=O | > 200 µM | > 200 µM |  |
| CS(=O)(=O)c1cc(=O)[nH]c(=O)[nH]1 | 77.6 µM | 102 µM |  |

| Compound | EC50 | IC50 | outcome |
| --- | --- | --- | --- |
| O=C1CC(=O)NC(=NN2C(=O)/C(=C/C(=O)c3ccco3)N=C2c2ccccc2)N1 | > 200 µM | 32.4 µM |  |
| C=CCC1([C@H](C)[C@@H](OC(C)=O)c2cc(OC)c(OC)c(OC)c2)C[C@@H](OC)CCC1=O (stereo partly specified) | > 115 µM | 6.03 µM |  |
| CCN(CC)CCOC(=O)CCN1CC2CCC(CC2)C1 | > 200 µM | > 200 µM |  |
| C=CC(C)(C)c1c(OC)oc2ccc(OC)c(C)c2c1=O | > 200 µM | 38.9 µM |  |
| COc1ccc(/C=C/C(=O)c2ccccc(=O)c2O)cc1 | > 63.1 µM | 3.39 µM |  |
| CC(C)CCCC(C)[C@H]1CCC2C3CCC4C[C@@H](CCC=C(c5cc(Cl)c(OCc6ccc([N+](=O)[O-])cc6)c(C(=O)O)c5)c5cc(Cl)c(OCc6ccc([N+](=O)[O-])cc6)c(C(=O)O)c5)CC[C@]4(C)C3CC[C@@]21C (stereo partly specified) | 115 µM | > 200 µM |  |
| CC(=O)OC1(C(C)=O)CC2(c3ccccc3)OC1(c1ccccc1)c1ccccc12 (stereo unspecified) |  |  | inactive |
| CC[C@@H](C)C(=O)O[C@H]1[C@H](O)[C@H]2[C@@H](CN3C[C@@H](C)CC[C@H]3[C@@]2(C)O)[C@@H]2CC34O[C@]5(O)[C@@H](OC(=O)[C@@](C)(O)CC)CC[C@@]3(C)[C@@H]5[C@@H](OC(C)=O)[C@@H](OC(C)=O)[C@H]4[C@@]21O | > 200 µM | > 200 µM |  |
| COc1cc(N=Nc2ccccc2)c2nccc(C)c2c1N |  |  | inactive |
| CCOC(=O)c1cnc2c(ccc3ncccc32)c1Cl | > 66.1 µM | 34.7 µM |  |
| O/N=C\c1c2c(cc3c1CCC3)CCC2 | > 200 µM | > 200 µM |  |
| Cc1c2ccccc2nc(CS(=O)(=O)c2ccccc2)[n+]1[O-] | > 200 µM | 12.6 µM |  |
| CC(C)C(NC(=O)OC(C)(C)C)C(=O)N1CCCC1C(=O)OCc1ccccc1 (stereo not drawn) (Boc-Val-Pro-OBn; configuration not given here) | > 200 µM | 123 µM |  |
| C/C=N\n1c(C)n[nH]c1=O | > 200 µM | > 200 µM |  |
| O=C1c2ccccc2C(=O)c2c(NCCNCCO)ccc(O)c21 |  |  | inactive |
| Cc1cnc2c(c1)C(=O)N(c1ccc(Br)cc1)S2(=O)=O | > 200 µM | 58.9 µM |  |
| Cn1nc(-c2ccccc2)c2c(/C=C/c3ccc(F)cc3)onc2c1=O | > 38.9 µM | > 38.9 µM |  |
| COc1ccc(NS(=O)c2ccc(-c3ccccc3)cc2)cc1 (stereo unspecified) | > 200 µM | 14.8 µM |  |
| OC(CCN1CCOCC1)(c1cccc(Cl)c1)C1CCCCC1 (stereo unspecified) | > 200 µM | 41.7 µM |  |
| CC(=O)N(C(=O)CC(=O)N1N=C(C)C(N=Nc2cccc([N+](=O)[O-])c2)C1=O)c1ccc(Cl)cc1 (stereo unspecified) | > 170 µM | 72.4 µM |  |
| CN(C)C1=NC(=O)C(c2ccccc2)O1 (stereo unspecified) | > 200 µM | > 200 µM |  |

| Compound | EC50 | IC50 | outcome |
| --- | --- | --- | --- |
| O=C1OC(C2Cc3cc4c(cc3C2=O)CCC4)c2ccccc21 (stereo unspecified) | > 200 µM | 33.9 µM |  |
| CC(=O)C1(N=Nc2ccc(S(=O)(=O)Nc3nccc(C)n3)cc2)CCOC1=O (stereo unspecified) | > 200 µM | > 200 µM |  |
| O=C(N=C1[Se]C(=Nc2ccccc2)C(=Nc2ccccc2)N1c1ccc(Cl)cc1)c1ccccc1 | > 100 µM | 89.1 µM |  |
| O=C1COC(c2ccccc2O)=NN1CCCl | > 141 µM | > 141 µM |  |
| Cc1cc2nnn(C3CCCO3)c2cc1C (stereo unspecified) | > 200 µM | > 200 µM |  |
| O=C(NN1C(=O)C(Cl)C1c1ccccc1O)c1ccccc1O (stereo unspecified) | > 56.2 µM | 8.32 µM |  |
| CCN(CC)CCOc1ccc(N2C(=O)c3cccc4cc([N+](=O)[O-])cc(c34)C2=O)cc1 | > 200 µM | 2.45 µM |  |
| CC(NNC(=S)N1CCCCCC1)c1cccnn1 (stereo unspecified) | > 200 µM | 0.355 µM |  |
| Cc1ccc([N+](=O)[O-])cc1N=NC(=O)NNc1cc([N+](=O)[O-])ccc1C | > 200 µM | 32.4 µM |  |
| CCOC(=O)/C=C1/Nc2cc(Cl)c(Cl)cc2NC1=O | > 9.12 µM | > 9.12 µM |  |
| CC1(C)OC(=C(C#N)C#N)C(C#N)=C1/C=C/c1ccncc1 | > 151 µM | 0.813 µM |  |
| CC(SCCCCCCSC(C)C(=O)O)C(=O)O (stereo unspecified) | > 851 µM | > 851 µM |  |
| O=c1[nH]c(=O)n2n1CC(Br)C(Br)C2 (stereo unspecified) |  |  | inactive |
| NC(=O)c1ccc([Se][Se]c2ccc(C(N)=O)cc2)cc1 | > 13.2 µM | 6.92 µM |  |
| Cc1cccc(N=Nc2c(C)nn(C(=O)c3ccccc3)c2C)c1 |  |  | inactive |
| CNc1ncnc2nc(C)c(C)nc12 | > 200 µM | > 200 µM |  |
| CN=C(Nc1ccc(OC)c2ccccc12)SC | > 200 µM | > 100 µM |  |
| CC(=O)OCC1OC(N2C(C)=C(C(C)=O)C(c3ccc(Cl)cc3)C(C#N)=C2S)C(OC(C)=O)C(OC(C)=O)C1OC(C)=O (stereo unspecified) | > 200 µM | 29.5 µM |  |
| CCOc1ccc(NC(=O)C(=O)NO)cc1 | > 302 µM | 178 µM |  |
| CC(=O)OC1=NN=C2COC(c3ccccc3OC(C)=O)=NN2C1 | > 200 µM | 115 µM |  |
| CS(=O)(=O)c1[nH]nc2[nH]c(=O)[nH]c(=O)c12 | > 200 µM | > 200 µM |  |

| Compound | EC50 | IC50 | outcome |
| --- | --- | --- | --- |
| Nc1ncnc2c1ncn2[C@H]1CC(CO)CO1 (stereo partly specified) | > 661 µM | > 661 µM |  |
| O=P(NC12CC3CC(CC(C3)C1)C2)(N1CC1)N1CC1 |  |  | inactive |
| COc1ccc(NC(=O)CC(=O)NN2C(=O)/C(=C/c3ccc(N(CCC#N)CCC#N)cc3C)N=C2/C=C\c2ccccc2)cc1 |  |  | inactive |
| CCCCCCCCCCCCCCCc1nc(SCC(=O)O)n[nH]1 | > 3.89 µM | > 3.89 µM |  |
| COCOc1cc(OCOC)cc(C(=O)Oc2ccccc2)c1 | > 200 µM | > 200 µM |  |
| CCCCCC=C(c1cc(Br)c(OC)c(C(=O)OC)c1)c1cc(Br)c(OC)c(C(=O)OC)c1 | 26.9 µM | 87.1 µM |  |
| CC1(C)Cc2c(oc3ncnc(N)c23)CS1 | > 288 µM | > 288 µM |  |
| CNc1ccc(S(=O)Nc2ccccc2)cc1 (stereo unspecified) | > 200 µM | 93.3 µM |  |
| CCOC(=O)CCC(=O)Oc1ccc2c(c1OC(=O)CCC(=O)OCC)C(=O)c1ccccc1C2=O | > 87.1 µM | 46.8 µM |  |
| CCOC(=O)c1cc(/C=C/C(C)=C/C(=O)OC)oc1C | > 67.6 µM | > 67.6 µM |  |
| COc1ccc(-c2cc(-c3ccccc3)c(C#N)c(=O)n2C2OC(CO)C(O)C(O)C2O)cc1 (stereo unspecified) | > 21.4 µM | > 21.4 µM |  |
| Cc1ccc(S(=O)(=O)N/N=C(/c2ccccc2)c2ccsc2C)cc1 | > 200 µM | 29.5 µM |  |
| O=C1c2ccccc2S(=O)(=O)c2cc(-c3nn[nH]n3)ccc21 | > 200 µM | > 200 µM |  |
| N#Cc1c(N)[nH]c2ccc(Sc3ccccc3)cc12 | > 70.8 µM | 0.0832 µM |  |
| Cc1[nH]c2ccccc2c1C1Cc2ccccc2N1C(=O)/C=C\C(=O)O (stereo unspecified) | > 724 µM | 41.7 µM |  |
| CC(=O)Nc1ccc(S(=O)(=O)/N=C(/C2CCCC2)N2CCCC2)cc1 | > 200 µM | > 200 µM |  |
| CC1(C)CNC[C@@](C)(OCCO)C(=O)[N-]C(C)(C)CNC[C@@](C)(OCCO)C(=O)[N-]1.[Ni+2] | > 200 µM | > 200 µM |  |
| COc1ccc(/C=C2\N=C(c3ccccc3)N(Nc3nnc(NN4C(=O)/C(=C/c5ccc(OC)cc5)N=C4c4ccccc4)c4ccccc34)C2=O)cc1 |  |  | inactive |
| C=C1CC[C@@H](O)[C@]2(C)CC[C@@H](C(C)(C)O)[C@@H](OC3OC(CO)C(O)C(O)C3O)C12 (stereo partly specified) | > 288 µM | > 288 µM |  |
| CCOC(=O)CCC(NC(=O)c1ccc(Nc2nc3ccccc3nc2C(=O)OCC)s1)C(=O)OCC (stereo unspecified) | > 200 µM | > 200 µM |  |
